This is an account of results in ChEMBL document CHEMBL5038665, “Identification of the Benzoimidazole Compound as a Selective FLT3 Inhibitor by Cell-Based High-Throughput Screening of a Diversity Library” (J Med Chem, 2022).

A short description of data set [1]: Induction of apoptosis in mouse Ba/F3 FLT3-ITD cells assessed as survival population at 1 uM measured after 48 hrs by Annexin V-FITC/propidium iodide staining based flow cytometry(reference value: 93.99 %). The class given is functional. (In general: In flow cytometry, cells or beads pass a laser one at a time.)
In data set [2] the test system is MOLM-13. The experiment in a line: Induction of apoptosis in human MOLM-13 cells assessed as survival population at 0.5 uM measured after 48 hrs by Annexin V-FITC/propidium iodide staining based flow cytometry(reference value: 97.35 %). The class given is functional.
Data set [3] is described as follows: Oral bioavailability in 12 hrs fasted Sprague-Dawley rat at 15 mg/kg by LC-MS analysis. In kind it is ADME, organism-based. The note with it: in vivo.
A short description of data set [4]: Antitumor activity against mouse Ba/F3 FLT3-ITD cells implanted in Balb/c mouse assessed as increase in survival time at 120 mg/kg, po administered every 24 hrs (Rvb=14 days). The class given is functional.
The nature of data set [5]: Tmax in 12 hrs fasted Sprague-Dawley rat at 15 mg/kg, po measured upto 24 hrs by LC-MS analysis. The class given is ADME, organism-based. The note with it: in vivo.
Data set [6] concerns the target Fibroblast growth factor receptor 1 (Homo sapiens, UniProt P11362). Briefly: Inhibition of FGFR1 (unknown origin).
Data set [7] in a line: Half life in 12 hrs fasted Sprague-Dawley rat at 2 mg/kg, iv measured upto 24 hrs by LC-MS analysis. In kind it is ADME, organism-based. The note with it: in vivo.
Data set [8] can be described thus: Antitumor activity against mouse Ba/F3 FLT3-ITD cells implanted in Balb/c mouse assessed as increase in survival time at 30 mg/kg, po administered every 24 hrs (Rvb=14 days). The class given is functional.
The nature of data set [9]: Antiproliferative activity against mouse BaF3 cells expressing wild type FLT3 assessed as reduction in cell viability measured after 72 hrs by MTS assay. The class given is toxicity, cell-based. (In general: Tetrazolium assays rely on reduction of a dye to a coloured formazan, in cell work by metabolically active cells.)
Data set [10] relates to MOLM-13. The experiment in a line: Antiproliferative activity against human MOLM-13 cells harboring FLT3-ITD mutant assessed as reduction in cell viability measured after 72 hrs by MTS assay. The class given is functional, cell-based. As to conditions: MOLM-13, 72 h.
The target in data set [11] is Receptor-type tyrosine-protein kinase FLT3 (Homo sapiens) (UniProt P36888). Briefly: Inhibition of FLT3 phosphorylation in human MV4-11 cells assessed as reduction in phosphorylated FLT3 level measured after 12 hrs by western blot analysis. The class given is cell-based. (In general: In western blotting, separated proteins are transferred to a membrane and probed.)

A short description of data set [12]: Toxicity in Balb/c mouse implanted with mouse Ba/F3 FLT3-ITD cells assessed as inflammatory cell infiltration in spleen at 30 to 100 mg/kg, po administered for 14 days. In kind it is organism-based, BaF3. The note with it: in vivo, 336 h, time 14 day.
Data set [13] in a line: Antiproliferative activity against human ML-1 cells expressing wild type FLT3 assessed as reduction in cell viability measured after 72 hrs by MTS assay. The class given is functional, cell-based. The note with it: ML1, 72 h.
In data set [14] the target is Mast/stem cell growth factor receptor Kit (Homo sapiens, UniProt P10721). The experiment in a line: Inhibition of KIT (unknown origin).
Data set [15] is described as follows: Clearance in 12 hrs fasted Sprague-Dawley rat at 2 mg/kg, iv measured upto 24 hrs by LC-MS analysis. The class given is ADME, organism-based. As to conditions: in vivo.
The subject of data set [16] is MV4-11. The experiment in a line: Induction of apoptosis in human MV4-11 cells assessed as survival population at 0.1 uM measured after 48 hrs by Annexin V-FITC/propidium iodide staining based flow cytometry(reference value: 98.01 %). The class given is functional.
Data set [17] deals with MV4-11. The experiment in a line: Antiproliferative activity against human MV4-11 cells harboring FLT3-ITD mutant assessed as reduction in cell viability measured after 72 hrs ny MTS assay. In kind it is functional, cell-based. As to conditions: MV4-11, 72 h.
Data set [18] addresses T1, Receptor-type tyrosine-protein kinase FLT3 (Homo sapiens, UniProt P36888).
T1 sequence (P36888 whole entry): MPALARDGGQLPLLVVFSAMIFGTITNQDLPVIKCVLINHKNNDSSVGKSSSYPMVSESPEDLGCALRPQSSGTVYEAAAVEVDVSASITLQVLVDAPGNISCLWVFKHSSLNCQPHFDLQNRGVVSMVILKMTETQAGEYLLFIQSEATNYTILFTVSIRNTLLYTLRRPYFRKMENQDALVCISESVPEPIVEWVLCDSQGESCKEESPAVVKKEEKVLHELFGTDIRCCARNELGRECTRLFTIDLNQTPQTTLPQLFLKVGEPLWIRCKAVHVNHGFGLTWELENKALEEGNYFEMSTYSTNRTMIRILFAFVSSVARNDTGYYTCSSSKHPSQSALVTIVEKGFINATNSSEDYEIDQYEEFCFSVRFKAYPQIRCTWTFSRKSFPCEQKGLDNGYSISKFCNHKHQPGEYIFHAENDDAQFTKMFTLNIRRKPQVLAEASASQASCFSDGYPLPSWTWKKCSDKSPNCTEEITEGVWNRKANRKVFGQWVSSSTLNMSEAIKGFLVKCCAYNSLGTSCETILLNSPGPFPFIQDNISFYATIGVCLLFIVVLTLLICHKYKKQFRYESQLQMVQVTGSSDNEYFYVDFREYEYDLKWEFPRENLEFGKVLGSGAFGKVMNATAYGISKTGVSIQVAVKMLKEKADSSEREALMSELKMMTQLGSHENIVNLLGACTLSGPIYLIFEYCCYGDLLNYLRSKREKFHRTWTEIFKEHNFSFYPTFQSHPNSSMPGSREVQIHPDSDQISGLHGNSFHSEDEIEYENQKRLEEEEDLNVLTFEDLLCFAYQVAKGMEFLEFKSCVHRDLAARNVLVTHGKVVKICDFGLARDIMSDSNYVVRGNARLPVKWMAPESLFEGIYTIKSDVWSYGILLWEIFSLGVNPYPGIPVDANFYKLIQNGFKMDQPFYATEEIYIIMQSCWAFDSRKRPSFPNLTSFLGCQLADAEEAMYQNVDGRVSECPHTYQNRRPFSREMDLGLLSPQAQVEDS
The experiment in a line: Inhibition of FLT3 (unknown origin).

SMILES strings stand for the structures. The source made the active and inactive calls. No cut-off for these calls is given here. Where only a bound is given, the exact number is not on record here.

Mast/stem cell growth factor receptor Kit, sequence (P10721 whole entry): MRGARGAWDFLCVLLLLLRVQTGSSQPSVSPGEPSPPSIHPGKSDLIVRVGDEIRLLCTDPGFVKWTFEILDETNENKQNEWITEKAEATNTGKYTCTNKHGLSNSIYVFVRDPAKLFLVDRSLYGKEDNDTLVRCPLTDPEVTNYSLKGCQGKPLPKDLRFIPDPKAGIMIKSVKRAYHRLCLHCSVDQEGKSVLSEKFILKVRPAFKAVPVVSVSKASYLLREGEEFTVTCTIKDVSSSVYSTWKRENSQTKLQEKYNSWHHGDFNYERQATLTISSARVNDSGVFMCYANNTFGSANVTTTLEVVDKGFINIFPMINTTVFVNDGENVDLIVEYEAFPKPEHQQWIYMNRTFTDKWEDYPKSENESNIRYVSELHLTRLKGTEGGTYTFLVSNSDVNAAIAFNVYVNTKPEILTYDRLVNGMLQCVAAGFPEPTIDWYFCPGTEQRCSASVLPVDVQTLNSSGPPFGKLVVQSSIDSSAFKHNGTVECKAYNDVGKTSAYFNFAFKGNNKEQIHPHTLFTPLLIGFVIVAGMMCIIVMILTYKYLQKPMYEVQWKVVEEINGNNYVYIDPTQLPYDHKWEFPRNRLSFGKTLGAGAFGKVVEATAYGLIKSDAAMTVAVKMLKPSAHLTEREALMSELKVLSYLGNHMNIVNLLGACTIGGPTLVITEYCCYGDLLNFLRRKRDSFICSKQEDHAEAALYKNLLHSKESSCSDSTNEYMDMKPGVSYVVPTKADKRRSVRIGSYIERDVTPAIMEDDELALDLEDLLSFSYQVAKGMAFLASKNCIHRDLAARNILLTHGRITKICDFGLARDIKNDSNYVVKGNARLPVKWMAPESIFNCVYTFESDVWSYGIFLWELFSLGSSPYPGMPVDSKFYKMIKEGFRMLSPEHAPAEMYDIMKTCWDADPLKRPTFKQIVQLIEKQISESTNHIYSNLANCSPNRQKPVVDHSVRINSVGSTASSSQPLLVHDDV
Fibroblast growth factor receptor 1, sequence (P11362 whole entry): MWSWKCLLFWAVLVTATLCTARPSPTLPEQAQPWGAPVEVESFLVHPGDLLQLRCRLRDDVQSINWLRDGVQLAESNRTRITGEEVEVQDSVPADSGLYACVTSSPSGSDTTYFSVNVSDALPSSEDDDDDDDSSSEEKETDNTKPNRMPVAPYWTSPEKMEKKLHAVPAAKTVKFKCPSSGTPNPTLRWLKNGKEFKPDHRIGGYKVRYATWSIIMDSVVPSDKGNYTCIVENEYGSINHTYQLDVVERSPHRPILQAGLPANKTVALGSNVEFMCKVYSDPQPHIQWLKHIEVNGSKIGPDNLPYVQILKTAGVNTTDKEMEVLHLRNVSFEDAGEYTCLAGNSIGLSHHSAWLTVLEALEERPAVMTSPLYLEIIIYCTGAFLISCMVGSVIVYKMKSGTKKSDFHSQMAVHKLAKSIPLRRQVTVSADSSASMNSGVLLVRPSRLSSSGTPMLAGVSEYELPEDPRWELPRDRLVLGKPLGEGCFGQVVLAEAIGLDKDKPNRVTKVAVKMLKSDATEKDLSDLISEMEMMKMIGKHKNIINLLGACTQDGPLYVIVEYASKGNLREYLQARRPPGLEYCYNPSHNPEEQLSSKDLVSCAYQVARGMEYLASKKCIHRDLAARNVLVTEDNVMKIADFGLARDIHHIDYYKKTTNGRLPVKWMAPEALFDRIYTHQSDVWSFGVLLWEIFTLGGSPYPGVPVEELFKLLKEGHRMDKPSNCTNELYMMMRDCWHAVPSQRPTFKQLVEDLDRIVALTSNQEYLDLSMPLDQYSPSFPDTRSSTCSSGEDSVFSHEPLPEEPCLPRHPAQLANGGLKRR

As usually defined, the bioavailability is the share of a dose that reaches the circulation, judged against a reference dose that is usually intravenous. As usually defined, the Tmax is the time from dosing to the highest level. Broadly, the IC50 is the concentration that inhibits the measured activity by half. One may read the half-life as how long it takes for the measured level to halve. Higher therefore signals slow decline. What is called clearance is a measure of how efficiently the substance is removed, as volume per time. A higher clearance goes with efficient removal. Regarding `COc1cc(CNc2ccc3c(c2)ncn3-c2ccccc2)ccc1OCCO`, the Activity in data set [1] is 43.13%; in the data set on MOLM-13 [2] it was 68.85%; in [12], “Non-Toxic”; in the data set with MV4-11 [16], 94.26%. Also, the bioavailability in [3] worked out at 48.2%. Besides, the Time in data set [4] stood at 25 days; in data set [8], 18 days. Further, the Tmax in [5] is 39 min. For the same molecule, the IC50 in [6] is > 1000 nM; with MOLM-13 [10], 66.8 nM; in data set [13], > 50000 nM; in data set [14], 160 nM; in the data set on MV4-11 [17], 165 nM; in data set [18], 85 nM. In [7], the half-life was 18.6 min. In addition, the IC50 at 72 h in [9] is > 400 nM. Also, in data set [11], the inhibition result was “Active”. For the same molecule, the clearance in data set [15] was 43.2 mL/min/kg.
